The text below walks through data of patent US20140343000A1 (priority 2011, published 2014).

This assay concerns recombinant NL4-3 virus (Renilla luciferase in nef, Gag P373S; NLRluc) in MT-2 cells. Kind of assay: whole plant or invertebrate. In kind it is cell-based, HIV. Particulars: Renilla, NL43, luciferase activity in cells infected for 4-5 days with NLRluc recombinants, serial dilutions of inhibitor; class symbols (key in Table 1); read-out: EC50. The essentials:
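Virus from 293T transfection, titered in MT-2 by luciferase. MT-2 (RPMI, 10% HI-FBS) infected ± inhibitor serial dilutions, 4-5 d. Readout: Dual Luciferase premix (lysis:reagent:Stop & Glo 2:1:1), immediate luminescence.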

Where only a bound is given, the exact number is not on record here.

One may read the EC50 as the concentration giving half of the maximal effect.

With `C=C(C)[C@@H]1CC[C@]2(NCCN3CCN(C(=O)C(C)C)CC3)CC[C@]3(C)[C@H](CC[C@@H]4[C@@]5(C)CC=C(c6ccc(C(=O)O)cc6)C(C)(C)[C@@H]5CC[C@]43C)[C@@H]12` [Example B64, 4-((1R,3aS,5aR,5bR,7aR,11aS,11bR,13aR,13bR)-3a-((2-(4-isobutyrylpiperazin-1-yl)ethyl)amino)-5a,5b,8,8,11a-pentamethyl-1-(prop-1-en-2-yl)-2,3,3a,4,5,5a,5b,6,7,7a,8,11,11a,11b,12,13,13a,13b-octadecahydro-1H-cyclopenta[a]chrysen-9-yl)benzoic acid], the EC50 is less than 0.1 µM.
